Our source for the Ki values is BindingDB's records for doi:10.1074/jbc.M707463200 (National Cancer Institute-Bethesda, 2008).

What all share (assay): Binding Assay
Common to all, as to conditions: pH 7.4; 18 °C

Assay [1] has as its target Serine/threonine-protein kinase MRCK alpha (Homo sapiens, UniProt Q5VT25). As for the experimental part:
(§1) [3H]PDBu binding to the C1 domains of MRCK alpha/beta and PKC alpha/delta was measured using the polyethylene glycol precipitation assay.

Assay [2] concerns the target Serine/threonine-protein kinase MRCK beta (Homo sapiens, UniProt Q9Y5S2). The procedure: as §1
The target of assay [3] is Protein kinase C alpha type (Homo sapiens, UniProt P17252). As for the experimental part: as §1
For assay [4], the target named is Protein kinase C delta type (Homo sapiens, UniProt Q05655). The procedure: as §1
Sequence of Protein kinase C delta type (Q05655 whole entry): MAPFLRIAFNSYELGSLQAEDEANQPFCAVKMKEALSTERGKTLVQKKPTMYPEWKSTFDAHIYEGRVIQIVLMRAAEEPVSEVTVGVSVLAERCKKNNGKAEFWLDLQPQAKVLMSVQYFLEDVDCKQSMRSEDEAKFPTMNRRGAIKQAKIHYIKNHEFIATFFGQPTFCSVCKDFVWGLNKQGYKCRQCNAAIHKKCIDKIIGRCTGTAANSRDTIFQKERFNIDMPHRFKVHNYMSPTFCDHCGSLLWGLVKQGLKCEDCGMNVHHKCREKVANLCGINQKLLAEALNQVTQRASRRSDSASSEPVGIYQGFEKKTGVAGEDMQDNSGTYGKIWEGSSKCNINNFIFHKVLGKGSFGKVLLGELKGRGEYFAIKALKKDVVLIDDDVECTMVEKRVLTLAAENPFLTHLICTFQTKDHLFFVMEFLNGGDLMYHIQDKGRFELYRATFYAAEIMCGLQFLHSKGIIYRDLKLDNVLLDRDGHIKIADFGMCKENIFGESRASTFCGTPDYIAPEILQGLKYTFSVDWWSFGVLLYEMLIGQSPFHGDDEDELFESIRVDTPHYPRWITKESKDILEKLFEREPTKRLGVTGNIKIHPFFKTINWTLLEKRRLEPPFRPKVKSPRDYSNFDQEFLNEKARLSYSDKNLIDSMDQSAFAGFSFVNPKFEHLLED

Sequence of Serine/threonine-protein kinase MRCK beta (Q9Y5S2 whole entry): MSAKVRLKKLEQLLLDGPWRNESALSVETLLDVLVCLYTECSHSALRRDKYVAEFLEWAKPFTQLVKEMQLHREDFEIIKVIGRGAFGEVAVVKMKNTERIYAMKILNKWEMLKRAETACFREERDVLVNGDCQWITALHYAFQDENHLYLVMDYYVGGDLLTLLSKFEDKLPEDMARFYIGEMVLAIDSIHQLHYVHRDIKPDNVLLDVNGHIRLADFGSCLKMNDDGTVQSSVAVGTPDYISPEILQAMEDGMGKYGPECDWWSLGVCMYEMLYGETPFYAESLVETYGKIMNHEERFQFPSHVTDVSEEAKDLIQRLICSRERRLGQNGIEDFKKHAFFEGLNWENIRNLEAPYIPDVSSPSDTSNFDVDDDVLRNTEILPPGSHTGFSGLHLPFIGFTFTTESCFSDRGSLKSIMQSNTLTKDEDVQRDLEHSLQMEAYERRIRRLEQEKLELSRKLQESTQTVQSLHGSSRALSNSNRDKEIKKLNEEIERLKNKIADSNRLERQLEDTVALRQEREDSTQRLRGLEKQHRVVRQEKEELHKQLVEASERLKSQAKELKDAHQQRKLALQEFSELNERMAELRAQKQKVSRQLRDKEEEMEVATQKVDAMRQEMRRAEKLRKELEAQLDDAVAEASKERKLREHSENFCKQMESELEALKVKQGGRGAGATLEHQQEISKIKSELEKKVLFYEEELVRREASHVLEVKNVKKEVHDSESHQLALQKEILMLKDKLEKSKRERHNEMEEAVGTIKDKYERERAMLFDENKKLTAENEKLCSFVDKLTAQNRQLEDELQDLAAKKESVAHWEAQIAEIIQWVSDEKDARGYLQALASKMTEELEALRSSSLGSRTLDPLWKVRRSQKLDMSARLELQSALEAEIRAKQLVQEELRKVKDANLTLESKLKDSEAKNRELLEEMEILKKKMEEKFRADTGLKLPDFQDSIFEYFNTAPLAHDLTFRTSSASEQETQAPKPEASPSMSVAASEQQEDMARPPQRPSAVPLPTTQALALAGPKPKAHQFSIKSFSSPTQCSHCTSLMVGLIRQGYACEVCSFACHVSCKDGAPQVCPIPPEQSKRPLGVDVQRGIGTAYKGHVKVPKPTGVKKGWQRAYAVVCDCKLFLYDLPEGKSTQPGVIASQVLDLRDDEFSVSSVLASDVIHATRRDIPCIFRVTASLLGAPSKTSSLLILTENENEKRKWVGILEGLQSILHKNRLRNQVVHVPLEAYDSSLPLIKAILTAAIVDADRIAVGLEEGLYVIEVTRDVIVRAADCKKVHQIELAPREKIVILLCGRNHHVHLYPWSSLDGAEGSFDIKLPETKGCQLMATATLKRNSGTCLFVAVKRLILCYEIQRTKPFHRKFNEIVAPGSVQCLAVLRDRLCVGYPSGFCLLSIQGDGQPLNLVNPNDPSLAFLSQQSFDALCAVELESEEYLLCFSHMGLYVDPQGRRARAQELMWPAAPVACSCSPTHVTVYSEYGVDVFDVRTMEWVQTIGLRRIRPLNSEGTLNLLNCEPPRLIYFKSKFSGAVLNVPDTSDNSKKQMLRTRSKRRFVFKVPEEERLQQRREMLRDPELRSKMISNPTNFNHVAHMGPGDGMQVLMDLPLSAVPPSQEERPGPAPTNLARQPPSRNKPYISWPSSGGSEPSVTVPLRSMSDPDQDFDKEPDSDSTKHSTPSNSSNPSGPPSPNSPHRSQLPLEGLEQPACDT
Sequence of Serine/threonine-protein kinase MRCK alpha (Q5VT25 whole entry, the tested form may be a part): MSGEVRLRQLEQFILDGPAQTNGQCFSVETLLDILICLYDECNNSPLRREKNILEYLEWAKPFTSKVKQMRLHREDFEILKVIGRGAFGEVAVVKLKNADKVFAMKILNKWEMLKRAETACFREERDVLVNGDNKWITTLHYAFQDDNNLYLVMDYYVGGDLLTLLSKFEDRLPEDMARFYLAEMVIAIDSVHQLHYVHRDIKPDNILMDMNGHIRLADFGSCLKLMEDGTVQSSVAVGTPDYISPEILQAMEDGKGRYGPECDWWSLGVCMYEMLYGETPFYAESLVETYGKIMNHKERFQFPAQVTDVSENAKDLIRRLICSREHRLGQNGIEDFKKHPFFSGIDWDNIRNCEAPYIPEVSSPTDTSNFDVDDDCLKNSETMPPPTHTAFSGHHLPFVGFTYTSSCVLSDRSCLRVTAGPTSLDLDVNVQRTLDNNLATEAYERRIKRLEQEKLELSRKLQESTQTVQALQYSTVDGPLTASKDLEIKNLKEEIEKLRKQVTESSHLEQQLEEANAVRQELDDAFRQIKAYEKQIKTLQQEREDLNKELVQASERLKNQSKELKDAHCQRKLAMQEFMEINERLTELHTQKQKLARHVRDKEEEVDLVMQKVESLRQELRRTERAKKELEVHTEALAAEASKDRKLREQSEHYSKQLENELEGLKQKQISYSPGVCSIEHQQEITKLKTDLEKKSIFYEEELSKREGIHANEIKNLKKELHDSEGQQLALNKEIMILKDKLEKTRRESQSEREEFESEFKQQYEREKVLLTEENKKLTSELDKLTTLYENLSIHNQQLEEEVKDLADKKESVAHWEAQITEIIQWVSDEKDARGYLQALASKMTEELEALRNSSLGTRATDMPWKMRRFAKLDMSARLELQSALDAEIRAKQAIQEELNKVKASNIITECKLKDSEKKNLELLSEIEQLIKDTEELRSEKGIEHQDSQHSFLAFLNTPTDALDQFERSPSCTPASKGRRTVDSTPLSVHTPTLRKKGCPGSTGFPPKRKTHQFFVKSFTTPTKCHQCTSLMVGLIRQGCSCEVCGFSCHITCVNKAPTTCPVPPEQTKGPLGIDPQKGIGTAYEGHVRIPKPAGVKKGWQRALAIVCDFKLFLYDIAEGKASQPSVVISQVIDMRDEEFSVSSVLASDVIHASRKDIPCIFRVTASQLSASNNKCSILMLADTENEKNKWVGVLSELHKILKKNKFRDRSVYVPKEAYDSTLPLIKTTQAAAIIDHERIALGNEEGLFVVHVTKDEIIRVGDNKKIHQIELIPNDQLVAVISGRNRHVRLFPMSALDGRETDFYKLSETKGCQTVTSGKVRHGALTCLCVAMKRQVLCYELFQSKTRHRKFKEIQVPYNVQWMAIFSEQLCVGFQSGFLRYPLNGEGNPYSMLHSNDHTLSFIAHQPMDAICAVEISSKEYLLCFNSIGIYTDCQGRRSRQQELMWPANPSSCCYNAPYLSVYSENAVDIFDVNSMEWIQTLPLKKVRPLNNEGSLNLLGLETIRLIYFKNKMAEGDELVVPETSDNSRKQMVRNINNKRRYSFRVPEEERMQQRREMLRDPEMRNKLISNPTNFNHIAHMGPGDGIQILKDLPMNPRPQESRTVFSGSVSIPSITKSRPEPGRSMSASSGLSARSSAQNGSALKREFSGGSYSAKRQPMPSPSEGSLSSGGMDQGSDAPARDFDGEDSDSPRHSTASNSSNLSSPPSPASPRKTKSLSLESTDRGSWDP

The Ki is a measure of affinity in units of concentration, obtained from inhibition or displacement. High values mean lower affinity, low ones higher affinity. `CCCCCCCC(=O)OC[C@H](CO)OC(=O)CCCCCCC`: the values for the Ki in assay [1] and in assay [2] were 2.82 µM and 6.96 µM, respectively.

In the case of `CN(C)c1ccc(/C=C2/CC(CO)(COC(=O)c3ccc([N+](=O)[O-])cc3)OC2=O)cc1` (centres undefined) [DAG-lactone (130C045)], the inhibitory constant (Ki) in assay [3] was 4.2 µM; in assay [1], 22.6 µM; in assay [2], 26 µM; in assay [4] it was 0.00154 µM.

Regarding `CC(C)CC(C/C=C1/CC(CO)(COC(=O)C(C)(C)C)OC1=O)CC(C)C` (centres undefined) [DAG-lactone (HK-434)], the Ki turned out to be 0.402 µM in assay [3], 1.03 µM in assay [1] and 1.07 µM in assay [2].
